Assay results published in ChEMBL document CHEMBL2074459, “Coordinate induction by antioxidants of UDP-glucuronosyltransferase UGT1A6 and the apical conjugate export pump MRP2 (multidrug resistance protein 2) in Caco-2 cells” (Biochem Pharmacol, 2000).

Target: ATP-binding cassette sub-family C member 2 (Homo sapiens, UniProt Q92887)
Assay: TP_TRANSPORTER: Immunoblot analysis in Caco-2 cells
Type: functional, cell-based

Chain of ATP-binding cassette sub-family C member 2 (Q92887 whole entry): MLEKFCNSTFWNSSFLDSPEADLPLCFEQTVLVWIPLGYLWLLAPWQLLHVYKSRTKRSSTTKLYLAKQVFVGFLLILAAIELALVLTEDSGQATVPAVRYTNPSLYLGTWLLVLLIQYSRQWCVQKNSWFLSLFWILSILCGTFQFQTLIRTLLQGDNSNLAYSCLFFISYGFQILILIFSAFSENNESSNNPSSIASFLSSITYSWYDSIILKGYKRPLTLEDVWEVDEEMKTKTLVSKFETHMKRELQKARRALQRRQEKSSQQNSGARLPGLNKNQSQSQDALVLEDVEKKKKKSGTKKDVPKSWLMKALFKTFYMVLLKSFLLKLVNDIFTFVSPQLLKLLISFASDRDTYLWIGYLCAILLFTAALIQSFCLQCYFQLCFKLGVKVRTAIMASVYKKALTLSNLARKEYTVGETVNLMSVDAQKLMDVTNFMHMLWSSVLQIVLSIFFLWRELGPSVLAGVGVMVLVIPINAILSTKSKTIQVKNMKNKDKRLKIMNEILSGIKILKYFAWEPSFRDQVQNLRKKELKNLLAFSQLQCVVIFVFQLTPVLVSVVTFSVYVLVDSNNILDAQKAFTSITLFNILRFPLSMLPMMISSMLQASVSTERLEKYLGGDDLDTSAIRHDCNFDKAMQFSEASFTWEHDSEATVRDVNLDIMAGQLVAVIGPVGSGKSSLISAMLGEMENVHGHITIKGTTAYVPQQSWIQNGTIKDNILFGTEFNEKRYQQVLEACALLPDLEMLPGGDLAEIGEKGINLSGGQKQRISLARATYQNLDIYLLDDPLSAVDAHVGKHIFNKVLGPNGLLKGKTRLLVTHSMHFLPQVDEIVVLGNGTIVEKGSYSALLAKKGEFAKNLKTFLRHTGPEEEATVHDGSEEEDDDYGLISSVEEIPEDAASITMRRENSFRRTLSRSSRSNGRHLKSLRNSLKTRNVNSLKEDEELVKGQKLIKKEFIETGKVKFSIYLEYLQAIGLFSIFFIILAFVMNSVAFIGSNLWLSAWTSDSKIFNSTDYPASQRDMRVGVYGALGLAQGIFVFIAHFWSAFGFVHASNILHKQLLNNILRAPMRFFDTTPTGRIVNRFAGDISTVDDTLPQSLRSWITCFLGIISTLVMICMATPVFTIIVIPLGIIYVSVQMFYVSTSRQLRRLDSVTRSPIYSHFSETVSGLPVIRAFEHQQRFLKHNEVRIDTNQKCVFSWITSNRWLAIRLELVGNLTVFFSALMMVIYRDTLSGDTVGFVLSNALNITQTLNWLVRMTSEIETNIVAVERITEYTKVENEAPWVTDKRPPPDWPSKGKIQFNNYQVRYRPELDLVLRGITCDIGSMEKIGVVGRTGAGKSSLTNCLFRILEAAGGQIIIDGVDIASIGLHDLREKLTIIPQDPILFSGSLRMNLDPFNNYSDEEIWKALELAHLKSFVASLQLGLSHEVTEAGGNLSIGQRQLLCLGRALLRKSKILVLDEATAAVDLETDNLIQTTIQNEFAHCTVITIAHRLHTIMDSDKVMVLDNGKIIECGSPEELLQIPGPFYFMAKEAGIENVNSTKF

## O=c1c(O)c(-c2ccc(O)c(O)c2)oc2cc(O)cc(O)c12 [QUERCETIN]
  Activity: inducer [+]
